From patent publication US11203613B2, “Peptidomimetic proteasome inhibitors” (CORNELL UNIVERSITY, priority 2017, dated 2021)

Molecular target: Human Constitutive (Hu C-20S) β5 Active Subunit (Homo sapiens, UniProt P28074)
Experiment: IC50 determination, human constitutive 20S proteasome β5c (suc-LLVY-AMC hydrolysis)
Format: biochemical
Settings: Table 3; IC50 against human constitutive β5 active subunit; read-out: Hu-C20S β5

Structure (SMILES) | IC50 [µM]
CC[C@H]1CCCCN1C(=O)C[C@H](NC(=O)CCc1ccccc1)C(=O)N[C@@H](C)c1nc2c(F)cccc2[nH]1 [CEN-20, (S)-4-((S)-2-Ethylpiperidin-1-yl)-N—((S)-1-(4-fluoro-1H-benzo[d]imidazol-2-yl)ethyl)-4-oxo-2-(3-phenylpropanamido)butanamide] | 2.6
CC[C@H]1CCCCN1C(=O)C[C@H](NC(=O)NCc1ccccc1)C(=O)N[C@@H](C)c1nc2c(F)cccc2[nH]1 [CEN-21, (S)-2-(3-Benzylureido)-4-((S)-2-ethylpiperidin-1-yl)-N—((S)-1-(4-fluoro-1H-benzo[d]imidazol-2-yl)ethyl)-4-oxobutanamide] | 9.4
CC[C@H]1CCCCN1C(=O)C[C@H](Nc1nc2ccccc2s1)C(=O)N[C@@H](C)c1nc2c(F)cccc2[nH]1 [CEN-22, (S)-2-(Benzo[d]thiazol-2-ylamino)-4-((S)-2-ethylpiperidin-1-yl)-N—((S)-1-(4-fluoro-1H-benzo[d]imidazol-2-yl)ethyl)-4-oxobutanamide] | 1.2
CC[C@H]1CCCCN1C(=O)C[C@H](NC(=O)OCc1ccccc1)C(=O)N[C@@H](C)c1nc2c(F)cccc2[nH]1 [CEN-23, Benzyl ((S)-4-((S)-2-Ethylpiperidin-1-yl)-1-(((S)-1-(4-fluoro-1H-benzo[d]imidazol-2-yl)ethyl)amino)-1,4-dioxobutan-2-yl)carbamate] | 5.8
CC[C@H]1CCCCN1C(=O)C[C@H](NS(=O)(=O)CCC(C)C)C(=O)N[C@@H](C)c1nc2c(F)cccc2[nH]1 [CEN-24, (S)-4-((S)-2-Ethylpiperidin-1-yl)-N—((S)-1-(4-fluoro-1H-benzo[d]imidazol-2-yl)ethyl)-2-((3-methylbutyl)sulfonamido)-4-oxobutanamide] | 17.8
CC[C@H]1CCCCN1C(=O)C[C@H](NC(=O)[C@H]1C[C@@H]1c1ccccc1)C(=O)N[C@@H](C)c1nc2c(F)cccc2[nH]1 [CEN-25, (1S,2S)—N—((S)-4-((S)-2-Ethylpiperidin-1-yl)-1-(((S)-1-(4-fluoro-1H-benzo[d]imidazol-2-yl)ethyl)amino)-1,4-dioxobutan-2-yl)-2-phenylcyclopropane-1-carboxamide] | 8.1
CC[C@H]1CCCCN1C(=O)C[C@H](NC(=O)N(C)Cc1ccccc1)C(=O)N[C@@H](C)c1nc2c(F)cccc2[nH]1 [CEN-26, (S)-2-(3-Benzyl-3-methylureido)-4-((S)-2-ethylpiperidin-1-yl)-N—((S)-1-(4-fluoro-1H-benzo[d]imidazol-2-yl)ethyl)-4-oxobutanamide] | 3.3
CC[C@H]1CCCCN1C(=O)C[C@H](Nc1nc(Cc2ccc(F)cc2)no1)C(=O)N[C@@H](C)c1nc2c(F)cccc2[nH]1 [CEN-27, (S)-4-((S)-2-Ethylpiperidin-1-yl)-N—((S)-1-(4-fluoro-1H-benzo[d]imidazol-2-yl)ethyl)-2-((3-(4-fluorobenzyl)-1,2,4-oxadiazol-5-yl)amino)-4-oxobutanamide] | 1.4
CC[C@H]1CCCCN1C(=O)C[C@H](NC(=O)CCC(C)C)C(=O)N[C@@H](C)c1nc2ccccc2[nH]1 [CEN-28, N—((S)-1-(((S)-1-(1H-Benzo[d]imidazol-2-yl)ethyl)amino)-4-((S)-2-ethylpiperidin-1-yl)-1,4-dioxobutan-2-yl)-4-methylpentanamide] | 14.8
CC[C@H]1CCCCN1C(=O)C[C@H](NC(=O)CCC(C)(C)C)C(=O)N[C@@H](C)c1nc2ccccc2[nH]1 [CEN-29, N—((S)-1-(((S)-1-(1H-Benzo[d]imidazol-2-yl)ethyl)amino)-4-((S)-2-ethylpiperidin-1-yl)-1,4-dioxobutan-2-yl)-4,4-dimethylpentanamide] | 6.9
Cc1ncc(C(=O)N[C@@H](CC(=O)N2CCCC[C@@H]2C)C(=O)N[C@@H](C)c2nc3c(F)cccc3[nH]2)s1 [CEN-30, N—((S)-1-(((S)-1-(4-Fluoro-1H-benzo[d]Imidazol-2-yl)ethyl)amino)-4-((S)-2-methylpiperidin-1-yl)-1,4-dioxobutan-2-yl)-2-methylthiazole-5-carboxamide] | 4.5
CC(C)CCC(=O)N[C@@H](CC(=O)N1CCCC[C@@H]1C)C(=O)NCc1nc2ccccc2[nH]1 [CEN-31, N—((S)-1-(((1H-Benzo[d]imidazol-2-yl)methyl)amino)-4-((S)-2-methylpiperidin-1-yl)-1,4-dioxobutan-2-yl)-4-methylpentanamide] | 17.6
CC(C)CCC(=O)N[C@@H](CC(=O)N1CCCC[C@@H]1C)C(=O)N[C@@H](C)c1nc2ccccc2[nH]1 [CEN-32, N—((S)-1-(((S)-1-(1H-Benzo[d]imidazol-2-yl)ethyl)amino)-4-((S)-2-methylpiperidin-1-yl)-1,4-dioxobutan-2-yl)-4-methylpentanamide] | 23.5
C[C@H](NC(=O)[C@H](CC(=O)N1CCC[C@@H]1C)NC(=O)CCC(C)(C)C)c1nc2ccccc2[nH]1 [CEN-33, N—((S)-1-(((S)-1-(1H-Benzo[d]imidazol-2-yl)ethyl)amino)-4-((S)-2-methylpyrrolidin-1-yl)-1,4-dioxobutan-2-yl)-4,4-dimethylpentanamide] | 16.5
CC(C)CCC(=O)N[C@@H](CC(=O)N1CCCC[C@@H]1C)C(=O)N[C@H](C)c1nc2ccccc2[nH]1 [CEN-34, N—((S)-1-(((R)-1-(1H-Benzo[d]imidazol-2-yl)ethyl)amino)-4-((S)-2-methylpiperidin-1-yl)-1,4-dioxobutan-2-yl)-4-methylpentanamide] | 15.6
Cc1cc(C(=O)N[C@@H](CC(=O)N2CCCC[C@@H]2C)C(=O)NC(C)c2nc3ccccc3[nH]2)no1 (stereo partly drawn) [CEN-35, N-((2S)-1-((1-(1H-Benzo[d]imidazol-2-yl)ethyl)amino)-4-((S)-2-methylpiperidin-1-yl)-1,4-dioxobutan-2-yl)-5-methylisoxazole-3-carboxamide] | 19.6
Cc1cc(C(=O)N[C@@H](CC(=O)N2CCCC[C@@H]2C)C(=O)N[C@@H](C)c2nc3ccccc3[nH]2)no1 [CEN-36, N—((S)-1-(((S)-1-(1H-Benzo[d]imidazol-2-yl)ethyl)amino)-4-((S)-2-methylpiperidin-1-yl)-1,4-dioxobutan-2-yl)-5-methylisoxazole-3-carboxamide] | 17.5
C[C@@H](NC(=O)[C@H](CC(=O)N1CCCC[C@@H]1C)NC(=O)CCC(C)(C)C)c1nc2ccccc2[nH]1 [CEN-37, N—((S)-1-(((R)-1-(1H-Benzo[d]imidazol-2-yl)ethyl)amino)-4-((S)-2-methylpiperidin-1-yl)-1,4-dioxobutan-2-yl)-4,4-dimethylpentanamide] | 17.3
C[C@H](NC(=O)[C@H](CC(=O)N1CCCC[C@@H]1C)NC(=O)C1CC(C)(C)C1)c1nc2c(F)cccc2[nH]1 [CEN-39, N—((S)-1-(((S)-1-(4-Fluoro-1H-benzo[d]Imidazol-2-yl)ethyl)amino)-4-((S)-2-methylpiperidin-1-yl)-1,4-dioxobutan-2-yl)-3,3-dimethylcyclobutane-1-carboxamide] | 7.6
CC(C)C1CC1C(=O)N[C@@H](CC(=O)N1CCCC[C@@H]1C)C(=O)N[C@@H](C)c1nc2c(F)cccc2[nH]1 (stereo partly drawn) [CEN-40, N—((S)-1-(((S)-1-(4-Fluoro-1H-benzo[d]Imidazol-2-yl)ethyl)amino)-4-((S)-2-methylpiperidin-1-yl)-1,4-dioxobutan-2-yl)-2-isopropylcyclopropane-1-carboxamide] | 2.7
C[C@H](NC(=O)[C@H](CC(=O)N1CCCC[C@@H]1C)NC(=O)CCC(C)(C)C)c1nc2c(F)cccc2[nH]1 [CEN-41, N—((S)-1-(((S)-1-(4-Fluoro-1H-benzo[d]Imidazol-2-yl)ethyl)amino)-4-((S)-2-methylpiperidin-1-yl)-1,4-dioxobutan-2-yl)-4,4-dimethylpentanamide] | 4.8
C[C@H](NC(=O)[C@H](CC(=O)N1CCCC[C@@H]1C)NC(=O)C1CC2(CCC2)C1)c1nc2c(F)cccc2[nH]1 [CEN-42, N—((S)-1-(((S)-1-(4-Fluoro-1H-benzo[d]imidazol-2-yl)ethyl)amino)-4-((S)-2-methylpiperidin-1-yl)-1,4-dioxobutan-2-yl)spiro[3.3]heptane-2-carboxamide] | 27.4
C[C@H](NC(=O)[C@H](CC(=O)N1CCCC[C@@H]1C)NC(=O)C1CC2(COC2)C1)c1nc2cccc(F)c2[nH]1 [CEN-43, N—((S)-1-(((S)-1-(7-Fluoro-1H-benzo[d]imidazol-2-yl)ethyl)amino)-4-((S)-2-methylpiperidin-1-yl)-1,4-dioxobutan-2-yl)-2-oxaspiro[3.3]heptane-6-carboxamide] | 13.8
C[C@@H](NC(=O)[C@H](CC(=O)N1CCCC[C@@H]1C)NC(=O)CC1CC(C)(C)C1)c1nc2c(F)cccc2[nH]1 [CEN-44, (S)-2-(2-(3,3-Dimethylcyclobutyl)acetamido)-N—((R)-1-(4-fluoro-1H-benzo[d]imidazol-2-yl)ethyl)-4-((S)-2-methylpiperidin-1-yl)-4-oxobutanamide] | 0.9
CC[C@H]1CCCCN1C(=O)C[C@H](NC(=O)CCC(C)C)C(=O)N[C@@H](C)c1nc2c(F)cc(F)cc2[nH]1 [CEN-45, N—((S)-1-(((S)-1-(4,6-Difluoro-1H-benzo[d]Imidazol-2-yl)ethyl)amino)-4-((S)-2-ethylpiperidin-1-yl)-1,4-dioxobutan-2-yl)-4-methylpentanamide] | 4.1
CC1CC(C(=O)N[C@@H](CC(=O)N2CCC[C@@H]2c2ccccc2)C(=O)NC(C)c2nc3ccccc3[nH]2)C1 (stereo partly drawn) [CEN-46, N-((2S)-1-((1-(1H-Benzo[d]imidazol-2-yl)ethyl)amino)-1,4-dioxo-4-((R)-2-phenylpyrrolidin-1-yl)butan-2-yl)-3-methylcyclobutane-1-carboxamide] | 8.4
CC(C)CCC(=O)N[C@@H](CC(=O)N1CCC[C@@H]1c1ccccc1)C(=O)NC(C)c1nc2ccccc2[nH]1 (stereo partly drawn) [CEN-47, N-((2S)-1-((1-(1H-Benzo[d]imidazol-2-yl)ethyl)amino)-1,4-dioxo-4-((R)-2-phenylpyrrolidin-1-yl)butan-2-yl)-4-methylpentanamide] | 29.4
CC(C)CCC(=O)N[C@@H](CC(=O)N1CCC[C@@H]1c1ccccc1)C(=O)N[C@@H](C)c1nc2ccccc2[nH]1 [CEN-48, N—((S)-1-(((S)-1-(1H-Benzo[d]imidazol-2-yl)ethyl)amino)-1,4-dioxo-4-((R)-2-phenylpyrrolidin-1-yl)butan-2-yl)-4-methylpentanamide] | 50
